Legend:
[1] = LM CLhep (r); format: in vitro ADME, rat
[2] = LM CLhep (m); format: in vitro ADME, mouse
[3] = LM CLhep (d); format: in vitro ADME, dog
[4] = Hep CLhep (r); format: in vitro ADME, rat
[5] = Caco-2 permeability; format: in vitro ADME; conditions: human, Caco-2; read-out: Caco-2 Papp ratio
[6] = system: Caco-2; assay: Caco-2 permeability; format: in vitro ADME
[7] = PPB Fu (m); format: in vitro ADME; conditions: mouse, plasma
[8] = target: 2C9 (Homo sapiens, UniProt P11712); assay: Cyp inhibition 2C9; format: in vitro ADME; conditions: read-out: Cyps: 2C9
[9] = target: 3A4 (Homo sapiens, UniProt P08684); assay: Cyp inhibition 3A4; format: in vitro ADME; conditions: read-out: Cyps: 3A4
[10] = system: HT29, H1299, LNCaP and MCF-7 cells; assay: sVEGF ELISA in cancer cells; format: cell-based, human; conditions: MCF-7, HT29, H1299, compared to vehicle-treated cells
Procedure: Levels of sVEGF released to cell culture media was measured by ELISA.
(§1) For the co-culture experiments, 5×10^4 cancer cells were seeded in transwell in 0.5 mL complete growth medium and placed on the top of 0.1×10^6 fibroblasts plated in 12-well in 1 mL low serum growth media overnight. Following day cancer cells were washed with PBS and media replaced with reduced (1%) serum growth media. 0.5×10^6 PBMC were plated on top of fibroblasts, incubated for 45 min and activated with CD3 (1 μg/ml final concentration) and CD28 (5 μg/ml final concentration). […] Monoculture experiments, 0.1×10^6 cells were seeded in 12-well in 1 mL of complete growth media (cancer cells) or low serum growth media (fibroblasts) and incubated overnight. […] Afterwards, cell culture media was collected, cell debris were removed by centrifugation the concentration of VEGF in the cell culture supernatants was measured using the human/mouse VEGF immunoassay Quantikine ELISA kit (R&D systems, Minneapolis, Minn., USA) according to the manufacturer's instructions. For the intracellular VEGF detection, total protein concentration was determined by BCA (Pierce Chemical, USA) and VEGF levels determined using the same kit described above.

[11] = system: activated primary fibroblasts WI38, IMR90 and HDF; assay: sVEGF ELISA in activated primary fibroblasts; format: cell-based, human; conditions: fibroblasts activated with anti-CD3/anti-CD28 stimulated PBMCs, FGF-2 or TGFβ
From the text: FIG. 5: USP7 inhibition decreased secreted VEGF levels in activated fibroblasts. The USP7-mediated decrease in VEGF secretion observed in the co-cultures can be solely attributed to modulation of secreted VEGF in primary fibroblasts.
(FIG. 4). […] During the wound healing process or following stimulation by acute or chronic inflammatory signals, fibroblasts acquire an activated phenotype (referred to as myofibroblasts). Once activated, myofibroblasts proliferate and migrate, show contractile activity, exert physical forces to modify tissue architecture and become transcriptionally active leading to the secretion of cytokines, chemokines and extra-cellular matrix (ECM) components. In the tumour microenvironment, the majority of residual fibroblasts become activated and are known as cancer associated fibroblasts (CAF). In order to generate a myofibroblast phenotype, WI38, IMR90 and HDF were co-cultured with anti-CD3/anti-CD28 stimulated PBMCs or were stimulated by FGF-2 or TGFβ. […] The USP7 inhibitor-mediated decrease in VEGF secretion was only observed in primary fibroblasts; immortalized lung fibroblasts (WI38-VA13) were insensitive to USP7 inhibitor treatment, probably due to the destabilized p53 in the SV-40 immortalized fibroblasts (FIG. 7).
as §1

[12] = system: immortalized lung fibroblasts (WI38-VA13); assay: sVEGF ELISA in immortalized fibroblasts; format: cell-based, human; conditions: SV-40 immortalized, destabilized p53
Procedure: FIG. 7: USP7 inhibition-mediated decrease in VEGF secretion is dependent on a functional p53 pathway.
as §1

[13] = system: VEGF; assay: Circulating serum VEGF by ELISA in CT-26 tumour bearing mice; format: in vivo, mouse; conditions: day 15 post tumour grafting
[14] = system: CT-26 tumours; assay: Flow cytometry of tumour infiltrating immune cells, CT-26 model (AD-04); format: in vivo, mouse; conditions: dosed 10 days
Procedure: FIG. 32: USP7 inhibition modulates the tumour microenvironment immune compartment. […] Flow cytometry analysis of tumour infiltrating immune cells in the CT-26 syngeneic model dosed with the USP7 inhibitor for 10 days.
Harvested tumours were collected in HBSS medium, minced and incubated 30 minutes at 37° C. in non-enzymatic cell dissociation buffer followed by mechanical dissociation through a 70 μm filter. Viable cells were then enriched using Ficoll® gradient. All cells suspensions were count and one million viable cells were seeded in 96-well plates in 100 μL of Staining Buffer for acquisition. Non-specific binding was performed using mouse FcR blocking reagent. Viobility 405/452 Fixable Dye (Miltenyi Biotec) was used to assess cell viability. The antibodies directed against the CD45, CD335 (Nkp46), FoxP3 CD8a, CD4, CD3e, CD19, F4/80, CD11c, CD11 b (Miltenyi Biotec), Ly6G and Ly6C (Biolegend) were added. The stained cells were analyzed with a Fortessa X20 cytometer (BD Biosciences).

[15] = system: HIF-1α; assay: Cycloheximide chase assay, HIF-1α half-life
Procedure: Cells were lysed at the indicated time points (from 0 to 60 min) and samples analysed by immuno-blotting probing for HIF-1α. HIF-1α half-life was quantified by densitometry analysis. β-Actin was included as a normalization control.
Samples were subsequently collected at various time points for immuno-blot analysis probing for HIF-1α levels.
Cells were harvested and lysed at different time points and subjected to Western blot analysis using anti-HIF-1α antibody (D2U3T, Rabbit mAb #14179 Cell Signalling) and β-actin (Santa Cruz: A5316; 1:5000) as a loading control.

3A4, sequence (P08684 whole entry): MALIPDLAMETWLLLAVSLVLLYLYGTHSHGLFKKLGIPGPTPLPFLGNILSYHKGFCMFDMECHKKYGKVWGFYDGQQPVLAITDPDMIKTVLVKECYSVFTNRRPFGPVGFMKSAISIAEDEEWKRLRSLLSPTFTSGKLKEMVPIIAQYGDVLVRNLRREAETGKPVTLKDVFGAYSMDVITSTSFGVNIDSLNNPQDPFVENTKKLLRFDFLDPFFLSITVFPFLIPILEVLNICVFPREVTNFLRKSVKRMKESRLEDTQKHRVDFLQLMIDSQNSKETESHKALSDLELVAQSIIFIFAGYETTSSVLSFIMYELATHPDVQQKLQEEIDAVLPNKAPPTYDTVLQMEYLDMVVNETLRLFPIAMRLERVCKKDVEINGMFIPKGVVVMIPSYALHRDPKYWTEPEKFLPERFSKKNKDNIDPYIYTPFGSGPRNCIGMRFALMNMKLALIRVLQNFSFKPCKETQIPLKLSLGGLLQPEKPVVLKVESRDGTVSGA
2C9, sequence (P11712 whole entry): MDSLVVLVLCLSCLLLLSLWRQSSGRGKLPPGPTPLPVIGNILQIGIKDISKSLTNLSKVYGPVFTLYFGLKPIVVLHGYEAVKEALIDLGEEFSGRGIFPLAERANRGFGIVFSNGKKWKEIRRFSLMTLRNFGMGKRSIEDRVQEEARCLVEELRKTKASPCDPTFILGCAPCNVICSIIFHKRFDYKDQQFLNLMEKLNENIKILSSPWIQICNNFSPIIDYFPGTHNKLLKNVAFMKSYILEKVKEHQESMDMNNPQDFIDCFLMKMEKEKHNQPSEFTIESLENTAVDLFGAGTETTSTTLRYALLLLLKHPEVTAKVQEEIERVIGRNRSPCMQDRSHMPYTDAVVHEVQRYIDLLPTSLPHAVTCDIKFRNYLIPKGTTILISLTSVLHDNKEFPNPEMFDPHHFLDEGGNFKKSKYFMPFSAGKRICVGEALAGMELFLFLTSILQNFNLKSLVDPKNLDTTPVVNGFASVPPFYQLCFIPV

Row | SMILES | LM CLhep (r) [1] | LM CLhep (m) [2] | LM CLhep (d) [3] | Hep CLhep (r) [4] | efflux ratio [5] | Caco-2 A:B ([6]; A:B) | Caco-2 B:A ([6]; B:A) | fraction unbound [7] | IC50 [8] | IC50 [9] | sVEGF levels in supernatants of cancer cell lines [10] | sVEGF protein levels [11] | VEGF secretion [12] | circulating VEGF in mouse serum [13] | CD4 lymphocytes among TILs [14] | cytotoxic T-lymphocytes among TILs [14] | macrophages in myeloid cell infiltrate [14] | HIF-1α half-life ([15]; HDF, hypoxia, cycloheximide 100 μg/mL, AD-04 1 μM) | reduction of HIF-1α half-life ([15]; versus untreated cells (6 minutes and 36 seconds))
1 | CC1(C(=O)N2CCC(O)(Cn3cnc4c(cc(Cl)n4-c4ccc5c(c4)CCO5)c3=O)CC2)CC1 [ADC-159, 6-Chloro-7-(2,3-dihydrobenzofuran-5-yl)-3-((4-hydroxy-1-(1-methylcyclopropane-1-carbonyl)piperidin-4-yl)methyl)-3,7-dihydro-4H-pyrrolo[2,3-d]pyrimidin-4-One] | 27 | 55 | 22 | 43 | 4.1 | 8.5 | 34.7 | 0.1 | 11 µM | > 20 µM | – | – | – | – | – | – | – | – | –
2 | C[C@H](CC(=O)N1CCC(O)(Cn2cnc3c(-c4ccc(CN)cc4)n(C)nc3c2=O)CC1)c1ccccc1 [AD-04, (R)-3-(4-(Aminomethyl)phenyl)-6-((4-hydroxy-1-(3-phenylbutanoyl)piperidin-4-yl)methyl)-2-methyl-2H-pyrazolo[4,3-d]pyrimidin-7(6H)-one] | – | – | – | – | – | – | – | – | – | – | not significantly affected | dose-dependent decrease | insensitive | significant dose-dependent decrease | no significant change | significant increase | decrease | 4 min | 40%

Source: patent US20230088286A1, “USP7 INHIBITOR FOR USE IN THE TREATMENT OF CANCER” (ALMAC DISCOVERY LIMITED, priority 2020, published 2023)
